Test systems include COLO 205 colon; HCT-15 colon; HL-60(TB) leukemia; HOP-92 NSCLC; MDA-MB-231 breast; NCI-H460 lung; NCI/ADR-RES ovarian; OVCAR-5 ovarian; OVCAR-8 ovarian; SF-539 CNS.
Assay in all cases: inhibition of tumour cell growth, NCI panel, 48 h

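Dose response: 5 concentrations. Exposure: 48 h. Format: 96-well plates. Endpoint: linear interpolation; highest concentration if not reached. The concentration for 50% growth inhibition is given as GI50. TGI: total growth inhibition.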

With `COC(=O)c1cccc2c1Oc1ccccc1S2`, the TGI in the experiment with COLO 205 colon was 79.4 µM; in the experiment on HCT-15 colon, > 100 µM; in the experiment with HL-60(TB) leukemia, 28.9 µM; in the experiment with HOP-92 NSCLC, > 100 µM; with MDA-MB-231 breast, > 100 µM; in the experiment with NCI-H460 lung, > 100 µM. The TGI with NCI/ADR-RES ovarian, in the experiment on OVCAR-5 ovarian, in the experiment on OVCAR-8 ovarian and with SF-539 CNS was > 100 µM throughout.

In the case of `CC(C)(C)n1cc(-c2ccnc(NCCCNS(=O)(=O)c3ccc(Cl)cc3)c2)c(-c2cccc(O)c2)n1`, the GI50 with COLO 205 colon was 1.66 µM; with HCT-15 colon it was 1.52 µM; in the experiment on HL-60(TB) leukemia it was 2.51 µM; with HOP-92 NSCLC, 1.49 µM; in the experiment with MDA-MB-231 breast, 1.87 µM; with NCI-H460 lung, 1.94 µM. The GI50 in the experiment with NCI/ADR-RES ovarian is 1.92 µM; in the experiment on OVCAR-5 ovarian, 1.57 µM; in the experiment on OVCAR-8 ovarian, 2.22 µM; in the experiment on SF-539 CNS, 1.65 µM. In addition, the TGI with COLO 205 colon is 3.39 µM; in the experiment on HCT-15 colon it was 3.35 µM; in the experiment on HL-60(TB) leukemia, 6.37 µM; in the experiment with HOP-92 NSCLC, 3.33 µM; with MDA-MB-231 breast, 3.87 µM; with NCI-H460 lung it was 3.92 µM. In addition, the TGI in the experiment with NCI/ADR-RES ovarian worked out at 4.62 µM; in the experiment with OVCAR-5 ovarian, 3.19 µM; in the experiment on OVCAR-8 ovarian, 5.81 µM; with SF-539 CNS, 3.14 µM.

Consider `CN(C)CCC(=O)NCc1c2nc3ccccc3nc2n2ccccc12`, for which the GI50 in the experiment with COLO 205 colon was 73.3 µM; with HCT-15 colon it was 48.4 µM; with HL-60(TB) leukemia it was 58.1 µM; in the experiment on HOP-92 NSCLC, 34.6 µM; in the experiment on MDA-MB-231 breast it was 24.7 µM; in the experiment with NCI-H460 lung, 42.5 µM. Further, the GI50 in the experiment with NCI/ADR-RES ovarian is 47.2 µM; in the experiment on OVCAR-5 ovarian, > 100 µM; in the experiment with OVCAR-8 ovarian, 84.8 µM; in the experiment with SF-539 CNS, 21.9 µM. For the same compound, the TGI in the experiment with COLO 205 colon, in the experiment on HCT-15 colon, with HL-60(TB) leukemia, with HOP-92 NSCLC, with MDA-MB-231 breast and with NCI-H460 lung was > 100 µM throughout. Also, the TGI is > 100 µM in the experiment on NCI/ADR-RES ovarian, > 100 µM in the experiment with OVCAR-5 ovarian, > 100 µM with OVCAR-8 ovarian and 43.2 µM in the experiment on SF-539 CNS.
